The pKi is the negative decadic logarithm of the Ki, by convention in mol/L. High values mean a low Ki, low ones a high Ki.

pKi: −log10 of the molar value. Bounds are passed on as bounds.

This passage reports Ki results from ChEMBL document CHEMBL1127181, “Novel sigma receptor ligands 1” (Bioorg Med Chem Lett, 1993).

The target of this assay is Glutamate [NMDA] receptor. The assay can be described thus: Binding affinity towards PCP receptor in guinea pig brain membrane using radiolabeled ligand [3H]TCP (1-[1-(2-thienyl)cyclohexyl]piperidine) was determined. The class given is cell membranes, Cavia porcellus.
`O=C1C(c2ccc(F)cc2)COC12CCN(Cc1ccccc1)CC2` (centres undefined): the pKi was 5.65.

Compound `O=C1C(c2ccc(F)cc2)=COC12CCN(Cc1ccc(F)cc1)CC2` gave a pKi of 5.69.

Consider `O=C1C(c2ccc(F)cc2)=COC12CCN(Cc1ccccc1)CC2`, for which the pKi was under 5.00.

`O=C1C(c2ccc(F)cc2)=COC12CCN(CC1CCCCC1)CC2`: the pKi was 4.92.

Take `O=C1C(c2ccccc2)=COC12CCN(CC1CCCCC1)CC2`: the negative logarithm of the Ki (pKi) was under 5.00.

Take `O=C1C=C(c2ccccc2)OC12CCN(Cc1ccccc1)CC2`: the pKi was 5.36.

In turn, `CCN(CC)CCCC1(C)OC=C(c2ccccc2)C1=O` (centres undefined) had a pKi of 4.00.

In turn, `O=C1C=C(c2ccccc2)OC12CCN(CCc1ccccc1)CC2` had a pKi of under 5.00.

In turn, `O=C1C=C(c2ccc(F)cc2)OC12CCN(CCc1ccccc1)CC2` had a pKi of 5.08.
